pIC50: −log10 of the molar value. Where two headings read alike, the source gives them in different places.
Legend:
Tau-FynSH3 interaction = Tau-FynSH3 interaction (Homo sapiens (Human), UniProt P10636); test: Tau-FynSH3 AlphaScreen; format: binding
From the text: Human Fyn-SH3 domain with GST-tag at the N-terminus and a Strep-tag II ([…]) at the C-terminus (GST-Fyn-SH3-Strep) was cloned into pPR-IBA1 vector (IBA Lifesciences) (Cochran, et al. (2014) J. Biomol. Screen. 19, 1338-1349). Codon-optimized human 4R2N Tau for E. coli expression with a Strep-tag II at the C-terminus (His-Tau-Strep) was cloned into pET-28a(+) vector (Novagen). The constructs were transformed into E. coli BL-21(DE3) competent cells (Novagen). For GST-Fyn-SH3-Strep purification, a single colony was inoculated in Luria-Bertani (LB) broth at 37° C. overnight. 10 mL cell culture was added into 500 mL LB medium and cultured at 37° C. 0.5 mM Isopropyl β-D-1-thiogalactopyranoside (IPTG) was added into the culture when OD600 reached 0.7. Cells were further cultured at 25° C. for 4 hours and harvested. Cell pellet was resuspended in lysis buffer (20 mM Tris pH 7.9, 300 mM NaCl, 1 mM TCEP) with 1 tablet of EDTA-free protease inhibitors (ThermoFisher) and 1 mg/ml lysozyme. Cells were disrupted by sonication and debris was removed by centrifugation at 9500 rpm for 1 hour. Supernatant was loaded onto a glutathione-sepharose column (Cytiva). The column was washed in lysis buffer and protein eluted in lysis buffer containing 25 mM reduced glutathione. For His-Tau-Strep protein purification, cells were inoculated in LB broth medium and cultured at 37° C. overnight. A 10 mL overnight culture was added to 500 mL of auto-induction medium (Studier, F. W. (2005) Protein Expr Purif 41, 207-34) and cells were cultured at 37° C. for about 5 hours. The temperature was lowered to 18° C., and cells were cultured overnight. Cells were harvested and resuspended in lysis buffer with 20 mM imidazole, protease inhibitors, and lysozyme. Cells were disrupted by sonication and cell pellets were spun down at 9500 rpm for 1 hour. Supernatant was loaded onto Ni-NTA column (Cytiva) and the column was washed in lysis buffer with 20 mM imidazole. His-Tau-Strep protein was eluted in lysis buffer containing 400 mM imidazole. Both eluted GST-Fyn-SH3-Strep and His-Tau-Strep protein solutions were passed through G-25 desalting column (Cytiva) with lysis buffer and loaded onto high capacity Strep-Tactin column (IBA Lifesciences). The columns were washed in Buffer W (IBA Life sciences) and proteins were eluted in Buffer E (IBA life sciences). The eluted proteins were passed through G-25 desalting column again. Both GST-Fyn-Strep and His-Tau-Strep proteins were concentrated and diluted 1:1 in ethylene glycol as a cryoprotectant for storage at −80° C.
AlphaScreen was conducted with 10 µg/mL of glutathione donor beads (PerkinElmer, Waltham, MA) and nickel chelate acceptor beads (PerkinElmer) in 10 mM Bis-Tris (pH 7.0), 1 mM TCEP, 0.02% casein, and 0.1% Tween-20. Compounds were plated first followed by addition of one the proteins at 600 nM and incubation for 30 min. The second protein was added and incubated for 30 mn, then the beads were added simultaneously and the final mixture was incubated for 2 hours. Experiments were conducted in 384-well plates (6007290; PerkinElmer) and results were read on a PHERAstar plate reader (BMG Labtech, Cary, NC).
˜50,000 compounds from the Enamine and Southern Research libraries were screened to identify Tau-FynSH3 interaction inhibitors using an AlphaScreen assay (Cochran, et al. (2014) J. Biomol. Screen. 19, 1338-1349). Compounds that were >3 standard deviations above mean inhibition were selected, yielding 1,852 hits (FIG. 1A). […]. These 39 compounds were tested in a live-cell BRET assay to measure Tau-Fyn interaction in cells. […]. Screen. 19, 1338-1349).

Solubility = format: physicochemical; conditions: for ADME Sol (μM): Table 3; for Solubility: Table 2
[1] = Metabolic stability in mouse liver microsomes; format: in vitro ADME; conditions: for half-life: mouse, liver microsomes, Table 3, read-out: ADME t1/2 (min): MLMt1/2
[2] = Metabolic stability in human liver microsomes; format: in vitro ADME; conditions: Table 3, read-out: ADME t1/2 (min): HLMt1/2
From the text: (§1) A computational analysis of the top five hits was then completed to assess the physical attributes of the compounds emerging from the HTS. The target profile for drug-like properties included evaluation of molecular weight (MW), total polar surface area (PSA, the surface sum of all polar atoms on the molecule), solubility, metabolic stability, and partition coefficient (LogD). In general, MW<[…] and PSA <70 Å^2 were targeted, which generally allows for blood-brain barrier (BBB) permeability. Compounds with PSA >100 A^2 are generally poor at permeating cell membranes. Solubility was targeted at >10 μM at pH 7.4 and 40-60% of compound remaining after 60 minutes of incubation in mouse or human liver microsomes (an indicator of compound stability after first-pass metabolism). LogD is the log of the ratio of concentrations of a compound in two immiscible solvents at equilibrium. Values ranging from 2-4 were targeted, typical for CNS drugs. Based on these criteria, compound no. 55 was selected as the top hit for optimization. Compound no.

[3] = Partition coefficient (LogD); format: physicochemical; conditions: Table 3; read-out: ADME LogD
From the text: as §1

primary rat neurons = test: Modified MTT assay of Aβ toxicity in primary neurons; format: cell-based; conditions: compound 0.3, 3 or 15 μM, 90-minute pretreatment, 2.5 μM Aβ, 24 hours
From the text: Primary neuron cultures: All animal procedures were approved by the Institutional Animal Care and Use Committee at the University of Alabama at Birmingham (UAB). As before (Rush, et al. (2020) Neurobiol Dis 134, 104668; Voskobiynyk, et al. (2020) eLife 9, e57354), primary rat neurons were isolated from timed-pregnant Sprague-Dawley rats. Briefly, dams were euthanized with isoflurane anesthesia asphyxiation, and hippocampal tissue was isolated from E19 embryos in Hibernate E, then digested in papain for 10 minutes at 37° C. Neurons were triturated into a single cell suspension in Neurobasal supplemented with B-27, L-Glutamine, and 10% FBS, then plated in 96-well plates coated with PDL and laminin at 30,000 neurons per well in 200 uL medium or in 24-well coated plates with or without coverslips at 50,000 per well. Cultures were maintained at 37° C. with 5% CO2. Twenty-four hours after plating (DIV1), two 50% media changes with Neurobasal plus B-27 and L-Glutamine without FBS, and 5 μM cytosine β-D-arabinofuranoside was added to prevent glial proliferation. 50% media changes were performed at DIV7 and DIV14 with serum-free supplemented Neurobasal and experiments were started at DIV19.
Aβ oligomer preparation: As before (Rush, et al. (2020) Neurobiol Dis 134, 104668), lyophilized recombinant Aβ42 was dissolved in HFIP, dried overnight, then stored at −20° C. until oligomerization. To oligomerize, Aβ was dissolved in DMSO to 1 mM, then diluted to 100 µM in PBS, then sonicated and left on ice for 24 hours. Immediately prior to use, Aβ was centrifuged at 4° C. for 10 minutes at 14,000×g. Vehicle was prepared as well in identical fashion except lacking the Aβ peptide.
Aβ toxicity assays: The modified MTT and MAP2 assays were adapted from a recent study (Rush, et al. (2020) Neurobiol Dis 134, 104668). Briefly, at DIV19, media on the neurons was reduced to […], then compound was added to final concentration of 0 μM, 0.3 μM, 3 μM, or 15 μM with even amounts of DMSO. After 90-minute pretreatment with compound, 2.5 μM Aβ was added.
The modified MTT assay was performed 24 hours after Aβ application. 100 μM MTT was applied to neurons and incubated at 37° C. for one hour. Media was removed, then replaced with 15 μL 1.6% Tween20 in PBS and incubated on a shaker at 100 rpm for 5 minutes. The Tween was then removed and transferred to a 384-well clear-bottom plate and replaced with 15 μL isopropanol. Plates were again agitated for 5 minutes at RT, then isopropanol was transferred to the 384-well plate. Absorbance was then read at 590 nm on a plate reader, with 660 nm used as a reference. The ratio of Tween soluble MTT to isopropanol soluble (Tween-insoluble) MTT was calculated for each sample, then normalized to the vehicle group average.

Tau-Fyn interaction = Tau-Fyn interaction (Homo sapiens (Human), UniProt P10636); test: Tau-Fyn PLA screening in HEK-293 cells; format: cell-based; conditions: compound 15 μM, 24 hours
Protocol: Tau-Fyn PLA screening in HEK-293 cells: For Tau-Fyn PLA in HEK-293 cells, we used the same plasmids as before (Rush, et al. (2020) Neurobiol Dis 134, 104668): human 4R2N Tau with an N-terminal mKate2 tag in a pcDNA3.1 vector and human Fyn with an N-terminal Myc tag in a pCMV-Sport6 vector grown in Stellar E. coli. HEK-293 cells were plated on coverslips coated with PDL and laminin in a 24-well plate in DMEM supplemented with 10% FBS and 1% PenStrep. Cells were transfected with 125 ng of Tau-mKate2 and Fyn plasmids with 1.5 μL Fugene in plain DMEM. After 24 hours, compound was applied at 15 μM. Twenty-four hours after application, cells were fixed. PLA protocol was the same as above except for different primary antibodies (Tau5 1:500, Fyn3 1:250). After image acquisition, PLA density was calculated as PLA puncta (as above) divided by cell area to account for differences in confluency. Cell area was defined with ImageJ as % Area after theresholding Tau-mKate2 fluorescence because it filled the cells evenly. Puncta/cell area was then normalized to vehicle-treated slides from that experiment.

[4] = Table 3, read-out: Alpha screen IC50
[5] = Table 2, Tau-FynSH3 inhibitory activity in the AlphaScreen, read-out: IC50

Tau-FynSH3 interaction, sequence (P10636 other isoform, or with tags, fused parts or gaps): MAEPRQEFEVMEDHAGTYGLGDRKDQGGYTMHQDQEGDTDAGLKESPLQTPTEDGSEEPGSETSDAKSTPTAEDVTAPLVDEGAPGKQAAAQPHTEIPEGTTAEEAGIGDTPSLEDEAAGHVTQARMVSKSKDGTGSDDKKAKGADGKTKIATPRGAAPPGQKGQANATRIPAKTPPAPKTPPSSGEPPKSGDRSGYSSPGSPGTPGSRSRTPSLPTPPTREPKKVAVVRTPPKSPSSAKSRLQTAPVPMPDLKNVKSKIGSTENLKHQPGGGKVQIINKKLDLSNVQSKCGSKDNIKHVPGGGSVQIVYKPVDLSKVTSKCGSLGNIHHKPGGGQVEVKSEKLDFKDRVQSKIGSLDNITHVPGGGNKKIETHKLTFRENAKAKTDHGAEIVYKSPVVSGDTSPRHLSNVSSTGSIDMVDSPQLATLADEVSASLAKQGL
Tau-Fyn interaction, sequence (P10636 other isoform, or with tags, fused parts or gaps): as above

Row | pIC50 (Tau-FynSH3 interaction; [4]) | ADME Sol (μM) (Solubility) | half-life [1] [min] | half-life [2] [min] | logD [3] | SMILES | further results
1 | 5.45 | Sol = 59 μM | 40 | 152 | 1.3 | O=C(CN1C(=O)CCSc2ccccc21)Nc1nnc(-c2ccccn2)[nH]1 [compound 18, 2-(4-OXO-3,4-DIHYDROBENZO[B][1,4]THIAZEPIN-5(21)-YL)-N-(5-(PYRIDIN-2-YL)-4H-1,2,4-TRIAZOL-3-YL)ACETAMIDE] | 
2 |  |  |  |  |  | O=C(CCN1C(=O)CSc2ccccc21)Nc1ccc(-n2cncn2)cc1 [compound no. 37, N-(4-(1H-1,2,4-TRIAZOL-1-YL)PHENYL)-3-(3-oxo-2,3-DIHYDRO-4H-BENZO[B][1,4]THIAZIN-4-YL)PROPANAMIDE] | AlphaScreen activity (in words) (Tau-FynSH3 interaction): no observed AlphaScreen activity; pIC50 (Tau-FynSH3 interaction; [5]): < 4.00; Alpha screen IC50 (μM) (Tau-FynSH3 interaction; Table 3): Inactive; Aβ toxicity / Aβ-induced membrane trafficking dysfunction, modified MTT assay (primary rat neurons): did not ameliorate Aβ toxicity
3 | 5.59 | Sol = 9 μM | 26 | 74 | 2.3 | O=C(CN1C(=O)CSc2ccc(Cl)cc21)Nc1nnc(-c2ccccn2)[nH]1 [compound 16, 2-(6-CHLORO-3-OXO-2H-BENZO[B][1,4]THIAZIN-4(3H)-YL)-N-(5-(PYRIDIN-2-YL)-4H-1,2,4-TRIAZOL-3-YL)ACETAMIDE] | 
4 |  |  |  |  |  | O=C(CCN1CCSc2ccccc21)Nc1nnc(-c2ccccn2)[nH]1 [compound no. 57] | Aβ toxicity / Aβ-induced membrane trafficking dysfunction, modified MTT assay (primary rat neurons): did not; Tau-Fyn interaction in cells, Tau-Fyn PLA in HEK-293 cells (Tau-Fyn interaction): did not reduce Tau-Fyn interaction in cells
5 |  |  |  |  |  | O=C(CN1CCSc2cc(Cl)ccc21)Nc1nnc(-c2ccccn2)[nH]1 [compound 58] | Solubility (Solubility): <1 µM
6 | 5.82 | Sol = 20 μM | 8 | 28 | 1.3 | CC1(C)Sc2ccccc2N(CC(=O)Nc2nnc(-c3ccccn3)[nH]2)C1=O [compound 19] | 
7 | 6.00 | Sol = 22 μM | 82 | > 300 | 1.5 | O=C(Cn1c(=O)sc2ccccc21)Nc1nnc(-c2ccccn2)[nH]1 [compound 26] | 
8 | 5.99 | Sol = 46 μM | 53 | 175 | 1.7 | COc1ccc2c(c1)SCC(=O)N2CC(=O)Nc1nnc(-c2ccccn2)[nH]1 [compound 21, 2-(7-METHOXY-3-OXO-2H-BENZO[B][1,4]THIAZIN-4(3H)-YL)-N-(5-(PYRIDIN-2-YL)-4H-1,2,4-TRIAZOL-3-YL)ACETAMIDE] | 
9 |  |  |  |  |  | O=C(CN1CCSc2cc(C(=O)O)ccc21)Nc1nnc(-c2ccccn2)[nH]1 [compound 64] | pIC50 (Tau-FynSH3 interaction; [5]): > 6.70; MLM t1/2 ([1]; Table 2): >5 h
10 |  |  |  |  |  | Cc1ccc2c(c1)SCCN2CC(=O)Nc1nnc(-c2ccccn2)[nH]1 [compound 60] | Solubility (Solubility): <1 µM
11 | 5.92 |  |  |  |  | O=C(CN1C(=O)CCc2cc(Cl)ccc21)Nc1nnc(-c2ccccn2)[nH]1 [compound 48, 2-(6-CHLORO-2-OXO-3,4-DIHYDROQUINOLIN-1(2H)-YL)-N-(5-(PYRIDIN-2-YL)-4H-1,2,4-TRIAZOL-3-YL)ACETAMIDE] | 
12 | 5.80 |  |  |  |  | O=C(CN1C(=O)COc2cc(Cl)ccc21)Nc1nnc(-c2ccccn2)[nH]1 [compound 52, 2-(7-CHLORO-3-OXO-2,3-DIHYDRO-4H-BENZO[B][1,4]OXAZIN-4-YL)-N-(5-(PYRIDIN-2-YL)-4H-1,2,4-TRIAZOL-3-YL)ACETAMIDE] | 

From patent publication US20250367209A1 (SOUTHERN RESEARCH INSTITUTE, priority 2022, published 2025)
